From patent US20220228192A1, “Method To Evaluate Metabolic Activity Of Liver Enzymes” (Owlstone Medical Limited, priority 2018, published 2022)

How the values were obtained:
[1] = Breath Biopsy: VOCs in exhaled breath after ingestion of a peppermint capsule; type: in vivo; details: for VOC level in breath compared to baseline pre-ingestion controls: breath captured 30 minutes after consumption of the peppermint capsule, FIG. 1; for VOC level in breath compared to baseline pre-ingestion controls / relative abundance among peppermint-related compounds in breath: single individual
Experimental: For comparison, two breath collections were made from the same individual prior to ingestion to provide a baseline concentration for the VOCs of interest. Breath samples were analysed in the Breath Biopsy® Clinical Lab by FAIMS and TD-GC-TOF mass spectrometry.

[2] = biological target: CYP3A4 (Homo sapiens, UniProt P08684); details: cited from earlier work
[3] = tested on: CYP2C19 and CYP2C9 enzymes; experiment: Clinical study: limonene in exhaled breath, patients treated with an atherothrombotic drug versus untreated controls; type: in vivo; details: drug metabolised by CYP2C19 and CYP2C9 competes with limonene metabolism; FIG. 5
Source text: FIG. 5. Limonene concentration in the exhaled breath of patients prescribed with an atherothrombotic drug that is metabolised by CYP2C19 and CYP2C9 enzymes.
The drug is metabolised by CYP2C19 and CYP2C9 enzymes. […] As less limonene is metabolised compare dot eh control group.

[4] = after consumption of the peppermint capsule

CYP3A4, sequence (P08684 whole entry): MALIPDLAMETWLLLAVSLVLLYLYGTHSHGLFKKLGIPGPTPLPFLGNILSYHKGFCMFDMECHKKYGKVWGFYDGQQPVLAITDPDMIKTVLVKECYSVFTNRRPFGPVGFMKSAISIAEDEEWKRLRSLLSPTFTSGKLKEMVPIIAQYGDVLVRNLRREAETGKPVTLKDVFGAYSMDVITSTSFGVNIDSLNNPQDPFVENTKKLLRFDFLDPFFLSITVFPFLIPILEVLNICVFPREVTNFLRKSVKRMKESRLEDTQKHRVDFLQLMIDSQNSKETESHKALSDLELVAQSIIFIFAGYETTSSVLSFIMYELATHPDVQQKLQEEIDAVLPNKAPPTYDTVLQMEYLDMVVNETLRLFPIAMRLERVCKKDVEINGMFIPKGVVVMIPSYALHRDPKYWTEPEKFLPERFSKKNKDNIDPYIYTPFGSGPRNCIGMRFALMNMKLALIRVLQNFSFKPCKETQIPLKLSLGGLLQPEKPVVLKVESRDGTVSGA

Structure (SMILES)	VOC level in breath compared to baseline pre-ingestion controls [1]	metabolising enzyme [2]	limonene in exhaled breath, drug-treated patients versus untreated control group [3]	concentration in breath [1, 4]	relative abundance among peppermint-related compounds in breath [1, 4]
CC1CCC(C(C)C)C(O)C1 (racemic) [(±)-menthol]	large increase				
CC12CCC(CC1)C(C)(C)O2 [eucalyptol]	large increase	specifically metabolised by CYP3A4			
C=C(C)[C@H]1CC=C(C)CC1 [limonene]	large increase		higher secretion of limonene into breath	part-per-trillion (ppt) concentrations	most abundant
CC1=CCC2CC1C2(C)C (stereo not drawn) [α-pinene]	large increase				
C=C1CCC2CC1C2(C)C (stereo not drawn) [β-pinene]	large increase				most abundant
